From patent US20060062859A1, “Composition and method to optimize and customize nutritional supplement formulations by measuring genetic and metabolomic contributing factors to disease diagnosis, stratification, prognosis, metabolism, and therapeutic outcomes” (priority 2004, published 2006)
Read-outs that look alike come from different tables or passages of the source.

Legend:
[1] = 400 mcg, cited from earlier work
[2] = after six months; cited from earlier work
[3] = 200 and 400 mcg, cited from earlier work
[4] = cited from earlier work
[5] = Chromium picolinate vs placebo in obese subjects genotyped for DRD2 (scale weight, DEXA body fat); type: in vivo, human; conditions: for change in fat weight, body weight, percent change in weight, body weight change in kg: A2/A2 carriers; for any parameter of weight change: subjects possessing a DRD2 A1 allele (A1/A1 or A1/A2)
Protocol: A Case Study: Chromium and Dopamine Genes. While there is still controversy regarding the effects of chromium salts (picolinate and nicotinate) on body composition and weight loss in general, recent work seems to support the positive change in body composition in humans. The inventors embarked on a study with chromium picolinate to test out the principles of nutrigenomics. In this study they genotyped obese subjects for the dopamine D2 receptors gene (DRD2). The subjects were assessed for scale weight and for percent body fat. The subjects were divided into matched placebo and chromium picolinate (CrP) groups. […] Moreover, the inventors propose for the first time that mixed effects now observed with CrP administration in terms of body composition, may be resolved by typing the patient via DRD2 genotyping prior to treatment with chromium salts.
To reiterate, Blum and associates found similar evidence with chromium picolinate, for the role of genes in physiological response with nutritional supplements. While there still is controversy regarding the effects of chromium salts (picolinate and nicotinate) on body composition and weight loss in general, recent unpublished work seems to support the positive change in body composition in humans. In consideration of the above study, Chen and Blum and others decided to genotype 130 overweight subjects for the dopamine D2 receptor gene. The subjects were assessed for scale weight and for percent body fat using dual energy X-ray absorptionmetry (DEXA R). The subjects were divided into matched placebo and chromium picolinate groups (400 μg. per day). The sample was separated into two independent groups; those with either an A1/A1 or A1/A2 allele and those with only the A2/A2 pattern. […] Moreover, we propose for the first time that mixed effects now observed with chromium picolinate in terms of body composition, may be resolved by typing the patient via dopamine D2 receptor genotyping prior to treatment with not only chromium salts, but with other nutritional supplements as well.
In terms of weight loss ingredients one nutrient Chromium Picolinate, one of the most widely used ingredient in the weight management field, pharmacogenomically responds differentially based on the DRD2genotype. Dr. Blum is current in revision on a publication detailing these findings. Here are some details on the abstract: • Thomas J H Chen, Kenneth Blum, * Gilbert Kaats, E. R. Braverman. Arthur Eisenberg, M. Sherman. K. Davis, D E Comings, R. Wood, D. Pullin. CHROMIUM PICOLINATE A PUTATIVE ANTI-OBESITY NUTRIENT INDUCES CHANGES IN BODY COMPOSITION AS A FUNCTION OF THE Taq1 DOPAMINE D2 RECEPTOR POLYMORPHISMS. International J. Of Eating Disorders (in revision). • Objective: There is still controversy regarding the effects of chromium salts (picolinate and nicotinate) on body composition and weight loss in humans. Thus, we decided to test the hypothesis that typing the obese patients by genotyping the DRD2 gene prior to treatment with Chromium Picolinate (CrP) would result in a differential treatment outcome. • Methods: We genotyped obese subjects for the dopamine D2 receptors gene (DRD2) utilizing standard PCR techniques. The subjects were assessed for scale weight and for percent body fat using dual energy X-ray absorptiometry (DEXAR). The subjects were divided into matched placebo and CrP groups (400 ug. per day) accordingly. The sample was separated into two independent groups. Those with either an A1/A1 or A1/A2 allele or those with only the A2/A2 allelic pattern.

[6] = nucleus accumbens microinjections; cited from earlier work
[7] = cited from earlier work; remark: listed apart in the source
opioid receptor = conditions: intra-VTA infusions; cited from earlier work
[8] = 1320 mg/day, eight weeks, 1200 kcal/day; cited from earlier work
[9] = 3.0 g/day for 3 days; fasting state, rest or moderate exercise; cited from earlier work
[10] = HCA 440 mg t.i.d. eight weeks (Thom); parameters: species or system human; conditions: in vivo
Protocol: The Thom study indicates a dosage level of 440 mg of HCA (as opposed to GcE) t.i.d. (1320 mg/day) for eight weeks. […] The mean “weight loss” in the HCA group was 6.4 kg, 1.68 times greater than placebo. […] The GcE was taken in conjunction with 1200 mg L-Carnitine and 600 mcg chromium (from picolinate) and compared to placebo in 186 subjects (200 began the study) for 4 weeks. All participants were supposed to engage in an exercise regimen calibrated to personal needs. Loss of body fat in the treatment group averaged 1.29 kg compared to 0.64 kg in the placebo ([…]. The Girola study investigated the effects of chitosan, combined with a low amount of GcE, making a comparative evaluation impossible. In fact, variables in the studies noted, and others not mentioned, make conclusions about the efficacy of GcE for “weight loss” extremely difficult.

[11] = 2 weeks; cited from earlier work
ATP-citrate lyase = target: T1, ATP-citrate lyase (Homo sapiens, UniProt P53396); conditions: cited from earlier work
T1 sequence (P53396 1-1101): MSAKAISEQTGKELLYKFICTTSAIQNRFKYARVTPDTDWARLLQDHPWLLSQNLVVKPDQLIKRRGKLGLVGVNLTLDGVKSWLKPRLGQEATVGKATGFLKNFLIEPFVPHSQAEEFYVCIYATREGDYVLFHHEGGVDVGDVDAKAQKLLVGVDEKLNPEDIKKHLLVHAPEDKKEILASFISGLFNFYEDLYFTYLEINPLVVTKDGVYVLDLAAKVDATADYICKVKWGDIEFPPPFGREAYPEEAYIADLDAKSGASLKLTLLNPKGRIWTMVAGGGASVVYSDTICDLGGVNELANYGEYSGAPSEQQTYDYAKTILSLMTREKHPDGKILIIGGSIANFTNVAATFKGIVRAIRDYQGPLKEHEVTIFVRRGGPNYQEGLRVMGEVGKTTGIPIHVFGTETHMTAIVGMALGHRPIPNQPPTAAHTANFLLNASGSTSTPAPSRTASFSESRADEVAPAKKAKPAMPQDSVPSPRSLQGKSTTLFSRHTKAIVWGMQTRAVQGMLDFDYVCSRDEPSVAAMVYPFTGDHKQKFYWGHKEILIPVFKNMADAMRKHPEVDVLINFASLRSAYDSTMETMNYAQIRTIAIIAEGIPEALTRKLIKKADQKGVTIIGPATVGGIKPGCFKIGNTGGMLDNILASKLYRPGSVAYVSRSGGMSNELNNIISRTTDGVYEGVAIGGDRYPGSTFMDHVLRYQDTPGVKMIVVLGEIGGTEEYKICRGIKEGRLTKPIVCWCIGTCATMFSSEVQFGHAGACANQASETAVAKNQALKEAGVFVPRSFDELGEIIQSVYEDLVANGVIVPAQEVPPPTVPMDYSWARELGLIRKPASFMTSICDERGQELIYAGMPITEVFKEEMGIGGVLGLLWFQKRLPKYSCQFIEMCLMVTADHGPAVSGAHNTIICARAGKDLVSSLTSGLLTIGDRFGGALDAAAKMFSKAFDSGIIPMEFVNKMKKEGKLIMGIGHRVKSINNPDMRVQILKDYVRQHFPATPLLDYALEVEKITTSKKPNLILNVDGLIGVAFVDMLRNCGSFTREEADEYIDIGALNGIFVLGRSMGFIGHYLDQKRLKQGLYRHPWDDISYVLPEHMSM

[12] = in vivo; cited from earlier work
[13] = 2 g of HCA; fasting and fed subjects; cited from earlier work
[14] = injections; cited from earlier work
[15] = people with RA; cited from earlier work
lipolysis = conditions: p <0.01; cited from earlier work

For Chromium Picolinate, the “reduction in body fat vs placebo” value ([1]; p < 0.001) is given as “(p < 0.001) and body fat (p < 0.004), had a greater”, the “weight lost vs placebo” value ([1]; p < 0.001) is given as 400 mcg CrP group lost significantly more weight and the body composition ([1]; p < 0.004) is given as “reduction in body fat (p < 0.001), significantly improve”. For the same compound, the lean body mass [2] was “After six months the CrP group had an increase in lean”, the “changes in Body Mass composition indicies compared with placebo” value [3] was 200 and 400 mcg of CrP brought about significant and the “changes in Body Mass composition indicies compared with placebo” value ([3]; listed as chromium picolinate) was “body composition improvement, loss of body fat, gain in nonfat mass”. The “insulin response to an oral glucose load” value ([4]; exercise training combined with supplementation) was “lowered insulin response to an oral glucose load”, the body weight ([4]; supplementation alone) was “CrP supplementation resulted in significant weight gain,” and the “change in fat weight, body weight, percent change in weight, body weight change in kg” value [5] was “changes in kgms were all significant in A2/A2 group,”. The “change in fat weight, body weight, percent change in weight, body weight change in kg” value ([5]; listed as CrP) was “significant in A2/A2 group and non”, the “change in fat weight, body weight, percent change in weight, body weight change in kg” value ([5]; listed as chromium picolinate) was “all significant” and the “any parameter of weight change” value [5] was “no significance was found”. The “any parameter of weight change” value ([5]; listed as CRP) was “do not respond” and the “any parameter of weight change” value ([5]; listed as CrP) was “no significance was found”.
For `C[C@H](NC(=O)[C@@H](CC(=O)NO)Cc1ccccc1)C(=O)O` [kelatrophan], the intracranial self-stimulation [6] is given as “reduced”.
In the case of `O=C1CC[C@@]2(O)[C@H]3Cc4ccc(O)c5c4[C@@]2(CCN3CC2CC2)[C@H]1O5` [Naltrexone], the body weight ([7]; anorexic patients) is listed as “weight gain”, the binge-eating ([7]; bulimics) is listed as “some reduction” and the “stress-induced activation of dopamine metabolism in the NAcc and prefrontal cortex” value (opioid receptor) is listed as “prevent”.
For `O=C(O)CC(O)(C(=O)O)C(O)C(=O)O` (stereo not drawn) [HCA, (−)—Hydroxycitric acid], the mean weight loss [8] is given as 6.4 kg, the “short-term rate of fat oxidation” value [9] is given as “did not alter” and the “weight loss relative to placebo” value [10] is given as 1.68 times greater than placebo. The “satiety and energy intake compared to placebo” value [11] was “did not increase satiety or effect energy intake”, the “inhibition of ATP-citrate lyase” value (ATP-citrate lyase) was “competitively inhibit” and the “inhibition of ATP-citrate lyase” value (ATP-citrate lyase; listed as FCA) was “competitive inhibitor”. The satiety [12] was “no observable effects” and the “time to peak plasma levels” value [13] was “approximately 2 hours”.
For `NC(Cc1ccc(Cl)cc1)C(=O)O` (centres unmarked) [Para-Chlora-Phenylalanine (PCA), Para-Chlora-Phenylalanine], the induction of stress [14] is listed as “attenuated”.
For `CCCCC/C=C\C/C=C\C/C=C\CCCCC(=O)O` [GLA, GAMMA-LINOLENIC ACID], the RA symptoms [15] is given as “significant improvements”.
In the case of `C[C@]12CCC(=O)C=C1CC[C@@H]1[C@@H]2[C@@H](O)C[C@@]2(C)[C@H]1CC[C@]2(O)C(=O)CO` [cortisol], the “basal rate of lipolysis” value (lipolysis) is listed as “significantly reduced”.
